Each compound was assayed against Sigma non-opioid intracellular receptor 1 (Homo sapiens, UniProt Q99720) (assay: Binding affinity to sigma 1 receptor (unknown origin)).
Sequence of Sigma non-opioid intracellular receptor 1 (Q99720 whole entry): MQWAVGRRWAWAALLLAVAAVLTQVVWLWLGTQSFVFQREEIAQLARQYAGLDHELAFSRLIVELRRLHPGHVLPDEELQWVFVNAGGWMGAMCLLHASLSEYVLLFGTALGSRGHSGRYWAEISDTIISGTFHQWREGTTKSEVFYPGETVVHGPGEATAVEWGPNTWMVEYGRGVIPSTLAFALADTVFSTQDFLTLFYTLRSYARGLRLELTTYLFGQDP
Compound N#Cc1ccc(CCNC2CCc3nn4c(c3C2)C(=O)NCCC4)cc1 (stereo not given) has a Ki of 1000 nM. Compound CN1CCn2nc3c(c2C1=O)CC(NCc1ccc(F)cc1)CC3 (stereo not given) has a Ki of 1000 nM. Compound O=C(c1nn(-c2ccccc2)c2c1CC(NCCc1ncc[nH]1)CC2)N1CCCCC1 (stereo not given) has a Ki of 1000 nM. For CCCn1nc(C(=O)Nc2cccc(OC)c2)c2c1CCC(NCCc1ccncc1)C2 (stereo not given), the Ki was 1000 nM. In the case of N#Cc1ccc(CCNC2CCc3c(c(C(=O)N4CCCCC4)nn3-c3ccccc3)C2)cc1 (stereo not given), the Ki is reported as less than 1000 nM. With O=C(c1nn(-c2ccccc2)c2c1CC(N1CCc3ccccc3C1)CC2)N1CCCCC1 (stereo not given) the Ki was 1000 nM. Compound CCCn1nc(C(=O)N2CCCCC2)c2c1CCN(CCc1cccc(C(F)(F)F)c1)C2 has a Ki of 1000 nM. Compound O=C(c1nn(-c2ccccc2)c2c1CC(NCC1CCOCC1)CC2)N1CCCCC1 (stereo not given) has a Ki of less than 1000 nM. CCCn1nc(C(=O)N2CCCCC2)c2c1CCN(CCc1ccc(F)cc1)C2 was tested, and the Ki was less than 1000 nM. In the case of O=C1NCCn2nc3c(c21)CC(NCCc1ccc2c(c1)OCO2)CC3 (stereo not given), the Ki is reported as 1000 nM.

Each compound was assayed against Sigma intracellular receptor 2 (Homo sapiens, UniProt Q5BJF2) (assay: Binding affinity to sigma 2 receptor (unknown origin)).
Sequence of Sigma intracellular receptor 2 (Q5BJF2 whole entry): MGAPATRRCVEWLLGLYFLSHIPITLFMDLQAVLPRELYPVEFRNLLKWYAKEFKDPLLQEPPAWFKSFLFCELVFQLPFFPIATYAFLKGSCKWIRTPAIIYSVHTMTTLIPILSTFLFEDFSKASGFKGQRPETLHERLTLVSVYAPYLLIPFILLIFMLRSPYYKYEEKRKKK
In the case of N#Cc1ccc(CCNC2CCc3nn4c(c3C2)C(=O)NCCC4)cc1 (stereo not given), the Ki is reported as less than 1000 nM. In the case of CN1CCn2nc3c(c2C1=O)CC(NCc1ccc(F)cc1)CC3 (stereo not given), the Ki is reported as 1000 nM. In the case of O=C(c1nn(-c2ccccc2)c2c1CC(NCCc1ncc[nH]1)CC2)N1CCCCC1 (stereo not given), the Ki is reported as less than 1000 nM. For CCCn1nc(C(=O)Nc2cccc(OC)c2)c2c1CCC(NCCc1ccncc1)C2 (stereo not given), the Ki was less than 1000 nM. N#Cc1ccc(CCNC2CCc3c(c(C(=O)N4CCCCC4)nn3-c3ccccc3)C2)cc1 (stereo not given) gave a Ki of less than 1000 nM. With O=C(c1nn(-c2ccccc2)c2c1CC(N1CCc3ccccc3C1)CC2)N1CCCCC1 (stereo not given) the Ki was 1000 nM. For CCCn1nc(C(=O)N2CCCCC2)c2c1CCN(CCc1cccc(C(F)(F)F)c1)C2, the Ki was less than 1000 nM. Work on O=C(c1nn(-c2ccccc2)c2c1CC(NCC1CCOCC1)CC2)N1CCCCC1 (stereo not given) yielded a Ki of less than 1000 nM. CCCn1nc(C(=O)N2CCCCC2)c2c1CCN(CCc1ccc(F)cc1)C2 gave a Ki of 1000 nM. In the case of O=C1NCCn2nc3c(c21)CC(NCCc1ccc2c(c1)OCO2)CC3 (stereo not given), the Ki is reported as 1000 nM.

Reference: ChEMBL document CHEMBL4673399, “Sigma-1 and Sigma-2 Receptor Modulators as Potential Therapeutics for Alzheimer's Disease” (ACS Med Chem Lett, 2021)
